From US10730889B2, “Amido spirocyclic amide and sulfonamide derivatives” (Forma TM, LLC, priority 2012, dated 2020)
Read-outs that look alike come from different tables or passages of the source.

Key:
[1] = biological target: NAMPT (Homo sapiens (Human), UniProt P43490); assay: Biochemical inhibition assay (NAMPT enzymatic reaction, NMN quantified by mass spectrometry)
[2] = tested on: A2780 cells; assay: In-vitro cell proliferation assay (SRB, 72 hours); format: cell-based; conditions: A2780 cells, 72 hours, SRB, read-out: Cell Proliferation (IC50)

NAMPT, sequence (P43490 whole entry): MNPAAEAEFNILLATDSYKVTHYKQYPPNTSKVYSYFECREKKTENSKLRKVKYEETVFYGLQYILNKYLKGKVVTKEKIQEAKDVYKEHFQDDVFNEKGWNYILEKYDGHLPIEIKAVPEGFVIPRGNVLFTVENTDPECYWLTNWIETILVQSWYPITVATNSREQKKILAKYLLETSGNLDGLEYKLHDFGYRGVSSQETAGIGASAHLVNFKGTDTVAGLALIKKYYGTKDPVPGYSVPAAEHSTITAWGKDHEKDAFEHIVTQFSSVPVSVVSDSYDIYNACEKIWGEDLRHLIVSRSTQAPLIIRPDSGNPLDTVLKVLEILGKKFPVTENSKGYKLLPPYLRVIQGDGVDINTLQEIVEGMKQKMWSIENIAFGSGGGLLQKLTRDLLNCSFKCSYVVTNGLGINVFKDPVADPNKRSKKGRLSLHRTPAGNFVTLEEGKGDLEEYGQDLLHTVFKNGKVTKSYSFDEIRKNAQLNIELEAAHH

Row | IC50 [1] | IC50 ([2]; Homo sapiens, A2780, 72 h) | IC50 [2] | Molecule
1 | 356 nM | 326 nM |  | Cn1nc(C(=O)N2CCC3(CC2)CC3CNC(=O)c2cc3ccncc3o2)cc1C(F)(F)F (centres unmarked) [Example 131, N-[[6-[1-methyl-5-(trifluoromethyl]pyrazole-3-carbonyl]-6-azaspiro[2.5]octan-2-yl]methyl]furo[2,3-c]pyridine-2-carboxamide]
2 |  | 991 nM |  | O=C(NCC1CC12CCN(C(=O)c1cc(C3CC3)n[nH]1)CC2)c1cc2cnccc2[nH]1 (centres unmarked) [Example 368, N-[[6-(3-cyclopropyl-1H-pyrazole-5-carbonyl)-6-azaspiro[2.5]octan-2-yl]methyl]-1H-pyrrolo[3,2-c]pyridine-2-carboxamide]
3 |  | 93.3 nM |  | Cn1cc(-c2ccno2)c(C(=O)N2CCC3(CC2)CC3CNC(=O)c2cc3cnccc3[nH]2)n1 (centres unmarked) [Example 369, N-[[6-(4-isoxazol-5-yl-1-methyl-pyrazole-3-carbonyl)-6-azaspiro[2.5]octan-2-yl]methyl]-1H-pyrrolo[3,2-c]pyridine-2-carboxamide]
4 |  | 115 nM |  | Cc1nc(C)c(C(=O)N2CCC3(CC2)CC3CNC(=O)c2cc3cnccc3[nH]2)o1 (centres unmarked) [Example 370, N-[[6-(2,4-dimethyloxazole-5-carbonyl)-6-azaspiro[2.5]octan-2-yl]methyl]-1H-pyrrolo[3,2-c]pyridine 2-carboxamide]
5 |  | 30.2 nM |  | CC1(C)CC1C(=O)N1CCC2(CC1)CC2CNC(=O)c1cc2ccncc2o1 (centres unmarked) [Example 371, N-[[6-(2,2-dimethylcyclopropanecarbonyl)-6-azaspiro[2.5]octan-2-yl]methyl]furo[2,3-c]pyridine-2-carboxamide]
6 |  | 27.5 nM |  | CN1CCN(C(=O)c2ccc(C(=O)N3CCC4(CC3)CC4CNC(=O)N3Cc4ccncc4C3)cc2)CC1 (centres unmarked) [Example 372, N-[[6-[4-(4-methylpiperazine-1-carbonyl)benzoyl]-6-azaspiro[2.5]octan-2-yl]methyl]-1,3-dihydropyrrolo[3,4-c]pyridine-2-carboxamide]
7 |  | 1.11 nM |  | CC1(OC(=O)N2CCC3(CC2)CC3CNC(=O)N2Cc3ccncc3C2)CCOC1 (centres unmarked) [Example 375, (3-methyltetrahydrofuran-3-yl) 2-[(1,3-dihydropyrrolo[3,4-c]pyridine-2-carbonylamino)methyl]-6-azaspiro[2.5]octane-6-carboxylate]
8 |  | 16.1 nM |  | CC(C)(O)COC(=O)N1CCC2(CC1)CC2CNC(=O)N1Cc2ccncc2C1 (centres unmarked) [Example 376, (2-hydroxy-2-methyl-propyl) 2-[(1,3-dihydropyrrolo[3,4-c]pyridine-2-carbonylamino)methyl]-6-azaspiro[2.5]octane-6-carboxylate]
9 |  | 2000 nM |  | CC(C)(C)CS(=O)(=O)N1CCC2(CC1)CC2CNC(=O)c1cc2ccncc2o1 (centres unmarked) [Example 378, N-[[6-(2,2-dimethylpropylsulfonyl)-6-azaspiro[2.5]octan-2-yl]methyl]furo[2,3-c]pyridine-2-carboxamide]
10 |  | 2000 nM |  | CC(C)(C)CS(=O)(=O)N1CCC2(CC1)CC2CNC(=O)c1cc2cnccc2[nH]1 (centres unmarked) [Example 379, N-[[6-(2,2-dimethylpropylsulfonyl)-6-azaspiro[2.5]octan-2-yl]methyl]-1H-pyrrolo[3,2-c]pyridine-2-carboxamide]
11 | 15.8 nM | 2000 nM |  | CC(C)(C)OC(=O)N1CCC2(CC1)CC2CNC(=O)c1cnn2nccc2c1 (centres unmarked) [Example 383, tert-Butyl 2-[(pyrazolo[1,5-b]pyridazine-5-carbonylamino)methyl]-6-azaspiro[2.5]octane-6-carboxylate]
12 |  |  | 17.1 nM | Cc1nc(C)c(C(=O)N2CCC3(CC2)CC3CNC(=O)c2cc3ccncc3o2)o1 (centres unmarked) [Example 385, N-[[6-(2,4-dimethyloxazole-5-carbonyl)-6-azaspiro[2.5]octan-2-yl]methyl]furo[2,3-c]pyridine-2-carboxamide]
13 |  | 535 nM |  | CC(C)(O)COCC(=O)N1CCC2(CC1)CC2CNC(=O)c1cc2cnccc2[nH]1 (centres unmarked) [Example 387, N-[[6-[2-(2-hydroxy-2-methyl-propoxy)acetyl]-6-azaspiro[2.5]octan-2-yl]methyl]-1H-pyrrolo[3,2-c]pyridine-2-carboxamide]
14 |  | 1.26 nM |  | Cc1nc(C(F)(F)F)c(C(=O)N2CCC3(CC2)CC3CNC(=O)N2Cc3ccncc3C2)s1 (centres unmarked) [Example 388, N-[[6-[2-methyl-4-(trifluoromethyl]thiazole-5-carbonyl]-6-azaspiro[2.5]octan-2-yl]methyl]-1,3-dihydropyrrolo[3,4-c]pyridine-2-carboxamide]
15 |  | 0.575 nM |  | CC1(C)CC1C(=O)N1CCC2(CC1)CC2CNC(=O)N1Cc2ccncc2C1 (centres unmarked) [Example 389, N-[[6-(2,2-dimethylcyclopropanecarbonyl)-6-azaspiro[2.5]octan-2-yl]methyl]-1,3-dihydropyrrolo[3,4-c]pyridine-2-carboxamide]
16 |  | 2000 nM |  | CC(C)(C)OC(=O)N1CCC2(CC1)CC2CNC(=O)NCc1ccc2nccn2c1 (centres unmarked) [Example 392, tert-butyl 2-[(imidazo[1,2-a]pyridin-6-ylmethylcarbamoylamino)methyl]-6-azaspiro[2.5]octane-6-carboxylate]
17 |  | 14.5 nM |  | Nc1ccc(CC(=O)N2CCC3(CC2)CC3CNC(=O)N2Cc3ccncc3C2)cn1 (centres unmarked) [Example 394, N-[[6-[2-(6-Amino-3-pyridyl)acetyl]-6-azaspiro[2.5]octan-2-yl]methyl]-1,3-dihydropyrrolo[3,4-c]pyridine-2-carboxamide]
18 |  | 24.3 nM |  | O=C(NCC1CC12CCN(C(=O)N1CCOCC1)CC2)N1Cc2ccncc2C1 (centres unmarked) [Example 395, N-[[6-(morpholine-4-carbonyl)-6-azaspiro[2.5]octan-2-yl]methyl]-1,3-dihydropyrrolo[3,4-c]pyridine-2-carboxamide]
19 |  | 888 nM |  | CC(C)(O)CCC(=O)N1CCC2(CC1)CC2CNC(=O)c1cc2cnccc2[nH]1 (centres unmarked) [Example 397, N-[[6-(4-hydroxy-4-methyl-pentanoyl)-6-azaspiro[2.5]octan-2-yl]methyl]-1H-pyrrolo[3,2-c]pyridine-2-carboxamide]
20 |  | 0.722 nM |  | O=C(NCC1CC12CCN(C(=O)c1cnccc1C(F)(F)F)CC2)N1Cc2ccncc2C1 (centres unmarked) [Example 398, N-[[6-[4-(trifluoromethyl]pyridine-3-carbonyl]-6-azaspiro[2.5]octan-2-yl]methyl]-1,3-dihydropyrrolo[3,4-c]pyridine-2-carboxamide]
21 |  | 222 nM |  | CC1(O)CC(CC(=O)N2CCC3(CC2)CC3CNC(=O)c2cc3cnccc3[nH]2)C1 (centres unmarked) [Example 400, N-[[6-[2-(3-hydroxy-3-methyl-cyclobutyl)acetyl]-6-azaspiro[2.5]octan-2-yl]methyl]-1H-pyrrolo[3,2-c]pyridine-2-carboxamide]
22 |  | 2000 nM |  | CC(C)(C)OC(=O)N1CCC2(CC1)CC2CNC(=O)c1ccc2nccn2n1 (centres unmarked) [Example 402, tert-butyl 2-[(imidazo[1,2-b]pyridazine-6-carbonylamino)methyl]-6-azaspiro[2.5]octane-6-carboxylate]
23 |  | 2.9 nM |  | CC1(CC(=O)N2CCC3(CC2)CC3CNC(=O)N2Cc3ccncc3C2)CCN(CC(F)(F)F)CC1 (centres unmarked) [Example 403, N-[[6-[2-[4-Methyl-1-(2,2,2-trifluoroethyl)-4-piperidyl]acetyl]-6-azaspiro[2.5]octan-2-yl]methyl]-1,3-dihydropyrrolo[3,4-c]pyridine-2-carboxamide]
24 |  | 2000 nM |  | CC(C)(C)OC(=O)N1CCC2(CC1)CC2CNC(=O)N1Cc2cnc(N)cc2C1 (centres unmarked) [Example 406]
25 |  | 72.6 nM |  | O=C(Cc1cncnc1)N1CCC2(CC1)CC2CNC(=O)N1Cc2ccncc2C1 (centres unmarked) [Example 407, N-[[6-(2-pyrimidin-5-ylacetyl)-6-azaspiro[2.5]octan-2-yl]methyl]-1,3-dihydropyrrolo[3,4-c]pyridine-2-carboxamide]
26 |  | 2000 nM |  | O=C(NCC1CC12CCN(C(=O)c1ccccc1)CC2)c1cc2ccncc2o1 (centres unmarked) [Example 411, N-((6-benzoyl-6-azaspiro[2.5]octan-2-yl)methyl]furo[2,3-c]pyridine-2-carboxamide]
27 |  | 14.2 nM |  | Cc1ncoc1C(=O)N1CCC2(CC1)CC2CNC(=O)N1Cc2ccncc2C1 (centres unmarked) [Example 415, N-[[6-(4-methyloxazole-5-carbonyl)-6-azaspiro[2.5]octan-2-yl]methyl]-1,3-dihydropyrrolo[3,4-c]pyridine-2-carboxamide]
28 |  | 461 nM |  | CC(C)OC(=O)N1CCC2(CC1)CC2CNC(=O)c1cc2ccncc2o1 (centres unmarked) [Example 416, isopropyl 2-[(furo[2,3-c]pyridine-2-carbonylamino)methyl]-6-azaspiro[2.5]octane-6-carboxylate]
29 |  | 830 nM |  | CC1(OC(=O)N2CCC3(CC2)CC3CNC(=O)c2cc3ccncc3o2)COC1 (centres unmarked) [Example 417, (3-methyloxetan-3-yl) 2-[(furo[2,3-c]pyridine-2-carbonylamino)methyl]-6-azaspiro[2.5]octane-6-carboxylate]
30 |  |  | 7.03 nM | N-[[6-(2,2- dimethylcyclopropanecarbonyl)- 6-azaspiro[2.5]octan-2- yl]methyl]furo[2,3-c]pyndine-2- carboxamide [Example 373]
